Drawing on patent US11332459B2 (TEIJIN PHARMA LIMITED, priority 2017, dated 2022), this text covers IC50 for 23 molecules.

The structures appear in SMILES notation. Where a name gives a salt, the structure may show the parent alone.

The target in this assay is T1, human TRPC6 (Homo sapiens, UniProt Q9Y210).
T1 construct: expressed in transfected cells
T1 sequence (Q9Y210 1-931): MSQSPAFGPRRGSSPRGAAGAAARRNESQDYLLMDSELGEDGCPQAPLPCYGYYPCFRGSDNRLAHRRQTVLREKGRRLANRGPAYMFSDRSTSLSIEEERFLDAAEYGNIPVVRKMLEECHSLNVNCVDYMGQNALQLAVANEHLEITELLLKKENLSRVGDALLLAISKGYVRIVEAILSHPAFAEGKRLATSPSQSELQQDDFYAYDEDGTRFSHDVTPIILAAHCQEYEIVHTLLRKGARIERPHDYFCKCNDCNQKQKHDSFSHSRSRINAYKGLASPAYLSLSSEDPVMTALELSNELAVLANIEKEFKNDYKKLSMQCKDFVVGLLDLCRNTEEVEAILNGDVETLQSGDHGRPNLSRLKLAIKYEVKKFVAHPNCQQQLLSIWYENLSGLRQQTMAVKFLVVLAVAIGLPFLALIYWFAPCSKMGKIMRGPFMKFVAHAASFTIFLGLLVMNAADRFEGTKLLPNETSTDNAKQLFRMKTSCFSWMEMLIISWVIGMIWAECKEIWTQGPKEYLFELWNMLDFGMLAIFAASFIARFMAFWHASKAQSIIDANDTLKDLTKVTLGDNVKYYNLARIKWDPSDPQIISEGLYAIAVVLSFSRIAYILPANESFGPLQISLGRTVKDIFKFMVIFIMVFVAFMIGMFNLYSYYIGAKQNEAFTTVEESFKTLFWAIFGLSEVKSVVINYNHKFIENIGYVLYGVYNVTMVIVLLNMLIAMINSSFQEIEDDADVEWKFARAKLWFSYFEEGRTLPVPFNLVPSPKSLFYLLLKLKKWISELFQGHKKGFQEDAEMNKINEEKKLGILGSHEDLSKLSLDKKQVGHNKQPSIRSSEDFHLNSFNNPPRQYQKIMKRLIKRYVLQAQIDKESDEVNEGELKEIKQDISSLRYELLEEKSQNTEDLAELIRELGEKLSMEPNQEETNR
In words: TRPC6 calcium flux assay (FLIPR, OAG-stimulated calcium influx). The format is cell-based. To be noted: HEK293 cells stably transfected with human TRPC6, read-out: hTRPC6 Potency. An outline of the steps:
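IC50 derived by plotting background-corrected peak fluorescence (180 s window, normalized to OAG-triggered signal vs buffer) against dose. Stable human TRPC6 HEK293 line was dye-loaded, exposed to compound 25 min, then challenged with 50 uM final OAG in 2 mM Ca2+ HEPES buffer pH 7.2, 0.5% DMSO.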
A general note: Calcium assays in cells follow changes in intracellular calcium, usually with a dye or a luminescent sensor.
`N#Cc1ccc(Cn2c(N3CCC(F)(F)[C@H](N)C3)nc3cc(F)ccc32)nc1` [Example 71, (R)-6-((2-(3-amino-4,4-difluoropiperidin-1-yl)-5-fluoro-1H-benzo[d]imidazol-1-yl)methyl)nicotinonitrile hydrochloride]: the IC50 is 0.00562 µM.
As for `N[C@@H]1CN(c2nc3cc(F)c(F)cc3n2CC(=O)N(c2ccccc2)C2C=CS(=O)(=O)C2)CC[C@H]1F` (mixture of isomers) [Example 515, 2-(2-((3R,4R)-3-amino-4-fluoropiperidin-1-yl)-5,6-difluoro-1H-benzo[d]imidazol-1-yl)-N-(1,1-dioxido-2,3-dihydrothiophen-3-yl)-N-phenylacetamide], the IC50 was found to be 0.186 µM.
In the case of `N[C@@H]1CN(c2nc3cc(OC(F)(F)F)ccc3n2CC(=O)N2CCOCC2)CC[C@H]1F` [Example 475, 2-(2-((3R,4R)-3-amino-4-fluoropiperidin-1-yl)-5-(trifluoromethoxy)-1H-benzo[d]imidazol-1-yl)-1-morpholinoethan-1-one], the IC50 amounted to 0.62 µM.
The figure for `N#Cc1ccc2nc(N3CC[C@@H](F)[C@H](N)C3)n(Cc3ncc(Cl)cn3)c2c1` [Example 187, 2-((3R,4R)-3-amino-4-fluoropiperidin-1-yl)-1-((5-chloropyrimidin-2-yl)methyl)-1H-benzo[d]imidazole-6-carbonitrile] is 0.00159 µM.
The value for `N#Cc1ccc(Cn2c(N3CC[C@H](F)[C@H](N)C3)nc3c(Cl)cccc32)nc1` [Example 5] was 0.00292 µM.
For the molecule `CN[C@@H]1CN(c2nc3ccc(C#N)cc3n2Cc2ncc(Cl)cn2)CC[C@H]1F` [Example 283, 1-((5-chloro-2-pyrimidinyl)methyl)-2-((3R,4R)-4-fluoro-3-(methylamino)-1-piperidinyl)-1H-benzimidazole-6-carbonitrile], the IC50 was found to be 0.0238 µM.
`NC(=O)C1CCCCN1C(=O)Cn1c(N2CC[C@@H](F)[C@H](N)C2)nc2cc(F)c(F)cc21` (some centres unmarked) [Example 521]: the IC50 is 0.757 µM.
`N[C@@H]1CN(c2nc3cc(F)c(F)cc3n2CC(=O)N(CC2CCCO2)C2CCS(=O)(=O)C2)CC[C@H]1F` (stereo partly drawn) [Example 541, 2-(2-((3R,4R)-3-amino-4-fluoropiperidin-1-yl)-5,6-difluoro-1H-benzo[d]imidazol-1-yl)-N-(1,1-dioxidotetrahydrothiophen-3-yl)-N-((tetrahydrofuran-2-yl)methyl)acetamide]: the IC50 was greater than 3.75 µM.
The figure for `N#Cc1ccc(Cn2c(N3CC[C@](O)(CN)C3)nc3ccccc32)cc1` [Example 177, (S)-4-((2-(3-(aminomethyl)-3-hydroxypyrrolidin-1-yl)-1H-benzo[d]imidazol-1-yl)methyl)benzonitrile 2,2,2-trifluoroacetate] is 1.54 µM; for `CC1CCN1C(=O)Cn1c(N2CC[C@@H](F)[C@H](N)C2)nc2ccc(F)cc21` (stereo partly drawn) [Example 677, 2-(2-((3R,4R)-3-amino-4-fluoropiperidin-1-yl)-6-fluoro-1H-benzo[d]imidazol-1-yl)-1-(2-methylazetidin-1-yl)ethan-1-one] it is 0.0881 µM; for `CO[C@H]1CCN(c2nc3cc(F)ccc3n2Cc2ncc(Cl)cn2)C[C@H]1N` [Example 477, (3R,4S)-1-(1-((5-chloropyrimidin-2-yl)methyl)-5-fluoro-1H-benzo[d]imidazol-2-yl)-4-methoxypiperidin-3-amine] it is 1.03 µM.
As to `N#Cc1ccc(Cn2c(N3CC[C@@H](F)[C@H](N)C3)nc3cc(OC(F)F)ccc32)nc1` [Example 119, 6-((2-((3R,4R)-3-amino-4-fluoro-1-piperidinyl)-5-(difluoromethoxy)-1H-benzimidazol-1-yl)methyl)-3-pyridinecarbonitrile], the IC50 is 0.00194 µM.
Turning to `N[C@@H]1CN(c2nc3ccc(F)cc3n2CC(=O)N2CCOC[C@@H]2C2CC2)CC[C@H]1F` [Example 685, 2-(2-((3R,4R)-3-amino-4-fluoropiperidin-1-yl)-6-fluoro-1H-benzo[d]imidazol-1-yl)-1-((S)-3-cyclopropylmorpholino)ethan-1-one], the IC50 was 1.16 µM.
The value for `N#Cc1ccc(Cn2c(N3C[C@@H]4CC[C@H](N)[C@@H]4C3)nc3ccccc32)nc1` [Example 77, 6-((2-((3aS,4S,6aR)-4-aminohexahydrocyclopenta[c]pyrrol-2(1H)-yl)-1H-benzo[d]imidazol-1-yl)methyl)nicotinonitrile hydrochloride] was 0.0109 µM; that for `COc1cc(Cl)ccc1Cn1c(N2CC[C@@H](F)[C@H](N)C2)nc2cc(F)c(F)cc21` [Example 350, (3R,4R)-1-(1-(4-chloro-2-methoxybenzyl)-5,6-difluoro-1H-benzimidazol-2-yl)-4-fluoro-3-piperidinamine] was 0.351 µM; that for `N[C@@H]1CCCN(c2nc3ccccc3n2Cc2ccc(C(F)F)cc2)C1` [Example 381, (R)-1-(1-(4-(difluoromethyl)benzyl)-1H-benzo[d]imidazol-2-yl)piperidin-3-amine] was 5.68 µM.
`CN(C)C(=O)Cn1c(N2CC[C@H](F)[C@H](N)C2)nc2cc(Cl)ccc21` [Example 471, 2-(2-((3R,4S)-3-amino-4-fluoropiperidin-1-yl)-5-chloro-1H-benzo[d]imidazol-1-yl)-N,N-dimethylacetamide]: the IC50 is 0.36 µM.
`CN(C(=O)Cn1c(N2CC[C@@H](F)[C@H](N)C2)nc2cc(F)c(F)cc21)C1CC1` [Example 602, 2-(2-((3R,4R)-3-amino-4-fluoropiperidin-1-yl)-5,6-difluoro-1H-benzo[d]imidazol-1-yl)-N-cyclopropyl-N-methylacetamide]: the IC50 is 0.00575 µM.
The value for `N#Cc1ccc(Cn2c(N3CC[C@@H](O)[C@H](N)C3)nc3ccc(Cl)cc32)nc1` [Example 152, 6-((2-((3R,4R)-3-amino-4-hydroxypiperidin-1-yl)-6-chloro-1H-benzo[d]imidazol-1-yl)methyl)nicotinonitrile] was 0.0677 µM; that for `CCc1nc(Cn2c(N3CC[C@@H](F)[C@H](N)C3)nc3cc(F)c(F)cc32)no1` [Example 577, (3R,4R)-1-(1-((5-ethyl-1,2,4-oxadiazol-3-yl)methyl)-5,6-difluoro-1H-benzo[d]imidazol-2-yl)-4-fluoropiperidin-3-amine] was 0.184 µM.
On to `N[C@@H]1CN(c2nc3cc(F)c(F)cc3n2CC(=O)N2CCC(C(=O)N3CCCC3)CC2)CC[C@H]1F` [Example 529, 2-(2-((3R,4R)-3-amino-4-fluoropiperidin-1-yl)-5,6-difluoro-1H-benzo[d]imidazol-1-yl)-1-(4-(pyrrolidine-1-carbonyl)piperidin-1-yl)ethan-1-one], for which the IC50 is greater than 1.75 µM.
The value for `C[C@H](c1ccc(C#N)cn1)n1c(N2CC[C@@H](F)[C@H](N)C2)nc2cc(C#N)ccc21` [Example 224, 2-((3R,4R)-3-amino-4-fluoropiperidin-1-yl)-1-((R)-1-(5-cyanopyridin-2-yl)ethyl)-1H-benzo[d]imidazole-5-carbonitrile hydrochloride] was 0.158 µM.
The value for `N#Cc1ccc(Cn2c(N3CCC(F)(F)[C@H](N)C3)nc3cc(F)c(F)cc32)nc1` [Example 84, (R)-6-((2-(3-amino-4,4-difluoropiperidin-1-yl)-5,6-difluoro-1H-benzo[d]imidazol-1-yl)methyl)nicotinonitrile hydrochloride] was 0.00127 µM.
